Results published in patent US20150342893A1 (SIGMOID PHARMA LIMITED, priority 2014, published 2015).

Tests used:
[1] = Precipitation of drug during minibead manufacture (surfactant phase in contact with gelatin phase); format: physicochemical; settings: inhibitor added to celecoxib minibead formulation
Method: Minibeads containing celecoxib were prepared via a manual drop in oil method. The minibeads were manufactured by combining the surfactant phase (drug dissolved in vehicles) with a gelatin phase (mixture of gelatin, water, sorbitol and SDS) and mixing at approximately 60° C. Droplets of the mixture were then allowed to fall into a bath of cooling/hardening oil (Miglyol® 810N) at approximately 10° C. As the mixture droplets fall in air, coacervation occurs to form a coacervate suspension in which droplets of the surfactant phase are surrounded by a layer of gelatine (multiple coacervates exist within a single minibead). The dropping of the minibead into a cooling/hardening bath allows the minibeads to harden before being recovered for drying. […] A range of oils was investigated (olive oil, mineral oil and other medium chain triglycerides) for use as the cooling/hardening oil in the production of minibeads. […] The minibeads were then air dried for 24 hr (over this time the water in the formulation evaporated). In some of the formulations other components were added to the gelatin phase to prevent precipitation of drug during manufacturing and also to help maintain the minibead structure.
Similar formulations were produced in which the drug loading was increased to 9-10% w/w, however precipitation was evident for these formulations on contact of the surfactant phase with the gelatin phase. […]

HT29 cells [2] = experiment: MTT cell proliferation assay; format: cell-based; settings: Homo sapiens, HT-29, 72 hrs, tested at 20, 30, 50 and 100 μM, read-out: IC50 dose (dose required to reduce cell proliferation by 50% compared to medium)
Method: HT29 is a COX-2 positive human colorectal adenocarcinoma cell line and is in particular a model for adenocarcinoma, especially COX-2 positive adenocarcinoma. […] The cells were grown in a humidified atmosphere containing 5% CO2. Cell proliferation was measured using the VybrantMTT assay kit according to the manufacturer's guidelines. HT29 cells (10,000 cells) cells were plated in 100 μl of complete McCoy's 5A media in 96-well tissue culture dishes. […] In the case of celecoxib dissolved in DMSO, the celecoxib was dissolved overnight in DMSO before treatment. Two control groups were employed, one which involved no treatment (referred to as media) and the other which involved treatment with DMSO alone. […] The absorbance (A) was determined in a BioRad 680 microplate reader (BioRad, USA) at 550 nm.

[3] = Solubilisation measurements of celecoxib in vehicles (oils, surfactants, co-solvents); format: physicochemical
Method: Solubilisation studies were performed using a wide range of vehicles consisting of oils, surfactants and co-solvents. The vehicles used were Kolliphor® HS 15, Transcutol® P, Kolliphor® EL, Miglyol® 810N, Tween® 20 and Capryol® 90.
Celecoxib was added to measured quantities of the vehicles (excipients) in glass vials. These mixtures were stirred at room temperature on a magnetic stirrer; as an exception, the solubilisation measurements were performed at elevated temperatures in respect of vehicles which were solid at room temperature.

[4] = at 20° C.; cited from earlier work
[5] = cited from earlier work
HT29 cells [6] = experiment: Annexin V-PE / 7-AAD cell viability and apoptosis assay by flow cytometry; format: cell-based, human
Method: HT29 is a COX-2 positive human colorectal adenocarcinoma cell line and is in particular a model for adenocarcinoma, especially COX-2 positive adenocarcinoma. The HT29 cell line was grown in McCoy's 5A modified medium supplemented with 1.5 mM L-glutamine, 10% FBS (fetal bovine serum) and 1% penicillin/streptomycin. The cells were grown in a humidified atmosphere containing 5% CO2.
Two control groups were employed, one which involved no treatment (referred to as media) and the other which involved treatment with DMSO alone. Cell viability and the onset of apoptosis was monitored using an Annexin-PE Apoptosis Detection Kit which contains recombinant Annexin V-fluorochrome phycoerythrin (PE) conjugate and the vital dye 7-amino-actinomycin (7-AAD) followed by flow cytometry on a FACSCalibur system using CellQest software (BD Biosciences, USA) . Data for at least 10,000 cells were collected for each analysis made and two-dimensional plots of 7-AAD versus PE were generated.

Compound | Effect (potential precipitation inhibitor) [1] | IC50 (HT29 cells [2]) [µM] | solubility of celecoxib in Capryol 90 ([3]; vehicle Capryol 90, range between transparent and cloudy) [mg/g] | solubility of celecoxib in 2-(2-ethoxyethoxy)ethanol (Transcutol P) ([3]; vehicle Transcutol P) [mg/g] | maximum solubility of celecoxib in ethanol ([3]; vehicle ethanol) [mg/g] | aqueous solubility [4] [µg/mL] | Log P [5] | % of cells that died by necrosis (HT29 cells [6]; 50 μM, 72 h) [%] | combined % of cells that died via apoptosis (late and early apoptosis) (HT29 cells [6]; 50 μM, 72 h) [%] | viability at 50 µM (HT29 cells [6]; Homo sapiens, HT-29, 72 h, n=6, read-out: % viable cells) [%]
CC(=O)Oc1c(C)c(C)c2c(c1C)CCC(C)(CCC[C@H](C)CCC[C@H](C)CCCC(C)C)O2 (stereo partly shown) [Vitamin E Acetate, vitamin E acetate] | Effective precipitation inhibitor but negative | – | – | – | – | – | – | – | – | –
Cc1ccc(-c2cc(C(F)(F)F)nn2-c2ccc(S(N)(=O)=O)cc2)cc1 [Celecoxib, celecoxib] | – | > 100 | 58 to 64 | 345 to 390 | 100 to 125 | 3 to 7 | 3.5 | 13.96±2.48 | 17.02±1.63 | 69 ± 2.71
